The experiment relates to amphetamine-induced hyperactivity in rats. The experiment is described as follows: amphetamine-induced hyperactivity model of mania in rats (automated activity monitors). The note with it: for Effect on amphetamine-induced locomotor activity versus control (ANOVA) / Effect on activity levels of rats (summary): 75 mg/kg IP; for Effect on amphetamine-induced locomotor activity versus control (ANOVA) / Locomotor activity, 10 min: 19 h and 3 h before testing; for Effect on amphetamine-induced locomotor activity versus control (ANOVA) / Effect on activity levels of rats (summary) / Anti-manic potential from the tested model (conclusion): result in words; for Effect on activity levels of rats (summary): amphetamine-treated rats; for Anti-manic potential from the tested model (conclusion): based on the tested model and doses; for Locomotor activity, 20 min, mean / Vertical activity, 20 min, mean / Locomotor activity, 30 min, mean / Vertical activity, 30 min, mean / Locomotor activity, 10 min, mean / Vertical activity, 10 min, mean / Locomotor activity, 20-10 min, mean / Vertical activity, 20-10 min, mean / Locomotor activity, 30-20 min, mean / Vertical activity, 30-20 min, mean: group mean n=10; for Locomotor activity, 20 min, mean / Vertical activity, 20 min, mean / Locomotor activity, 30 min, mean / Vertical activity, 30 min, mean / Locomotor activity, 10 min, mean / Vertical activity, 10 min, mean / Locomotor activity, 20-10 min, mean / Vertical activity, 20-10 min, mean / Locomotor activity, 30-20 min, mean / Vertical activity, 30-20 min, mean / Locomotor activity, 10 min / Locomotor activity, 20 min / Vertical activity, 20 min / Locomotor activity, 30 min / Vertical activity, 30 min / Vertical activity, 10 min / Locomotor activity, 20-10 min / Vertical activity, 20-10 min / Locomotor activity, 30-20 min / Vertical activity, 30-20 min: 75 mg/kg IP twice, amphetamine 0.5 mg/kg s.c.; for Locomotor activity, 20 min, mean / Vertical activity, 20 min, mean / Locomotor activity, 20 min / Vertical activity, 20 min: cumulative to 20 min; for Locomotor activity, 30 min, mean / Vertical activity, 30 min, mean / Locomotor activity, 30 min / Vertical activity, 30 min: cumulative to 30 min; for Locomotor activity, 10 min, mean / Vertical activity, 10 min, mean / Locomotor activity, 10 min / Vertical activity, 10 min: first 10 min; for Locomotor activity, 20-10 min, mean / Vertical activity, 20-10 min, mean / Locomotor activity, 20-10 min / Vertical activity, 20-10 min: second 10 min interval; for Locomotor activity, 30-20 min, mean / Vertical activity, 30-20 min, mean / Locomotor activity, 30-20 min / Vertical activity, 30-20 min: third 10 min interval; for Locomotor activity, 10 min / Locomotor activity, 20 min / Vertical activity, 20 min / Locomotor activity, 30 min / Vertical activity, 30 min / Vertical activity, 10 min / Locomotor activity, 20-10 min / Vertical activity, 20-10 min / Locomotor activity, 30-20 min / Vertical activity, 30-20 min: individual rat; for Locomotor activity, 20-10 min / Vertical activity, 20-10 min / Locomotor activity, 30-20 min / Vertical activity, 30-20 min: non cumulative. Format: in vivo, Sprague Dawley rats. The procedure: Evaluation of possible anti-bipolar effects of compounds 1 to 4 was effected by an amphetamine-induced hyperactivity model of mania in rats. Each of the compounds was examined in a separate experiment and compared with a control group, treated with the same dose of amphetamine.
Twenty Sprague Dawley rats, weighing 200-250 g served for each of the four (4) experiments. Rats were housed in a colony room with constant temperature (22° C.), 12 h light/dark cycle and free access to food and water. Each experiment consisted of two groups (n=10 per group), one group was treated with the compound (1 to 4) and the other with vehicle solution. In experiments 1-4, the drugs were administered intraperitoneally (IP). All experimental procedures were conducted during the light phase of the light/dark cycle.
Amphetamine (0.5 mg/kg, sub-cutaneous (s.c.), diluted in de-ionized water) was injected into all rats (both groups of each experiment) immediately prior to behavioral testing. In experiments 1 to 4, compounds (R)-N-acetyl aminoindan (1); (S)-N-indanyl glycinamide HCl (2); (rac)-N-(2-aminoacetyl)-1-aminoindan HCl (3); and (S)-N-formyl aminoindan (4) were injected twice intraperitoneally (IP) at a dose of 75 mg/kg, 19 h and 3 h prior to behavioral testing in experiments. All compounds were suspended in a 5% methyl cellulose solution. The vehicle solution was administered to the control animals.
Immediately after amphetamine injection, rats were placed in automated activity monitors and their activity levels were scored every 10 minutes in the 30 minute time span for experiments 1 to 4. Activity scores included separate measurements of horizontal (locomotion) and of vertical (rearing) activity.
Repeated ANOVA measurements were used to examine the effects of compounds 1 to 4 on locomotor and on vertical activity. One factor measured the treatment of the rats using compounds 1 to 4 or the control vehicle; the repeated measure factor was time (three 10 minute intervals). Post hoc LSD (least significant difference) tests were used to determine whether significant differences occurred in different time periods, where relevant.

Values joined by “and” are separate entries in the source; they are usually repeats but may differ in a detail not shown here. Equal values may be shown once.

With `O=CN[C@H]1CCc2ccccc21` [Compound 4, (S)-N-formyl aminoindan], the “Effect on amphetamine-induced locomotor activity versus control (ANOVA)” value is reported as “significantly reduced amphetamine-induced locomotor activity”; the “Effect on activity levels of rats (summary)” value is “reduced the activity levels”; the “Anti-manic potential from the tested model (conclusion)” value is recorded as “show anti-manic potential”; the “Locomotor activity, 20 min, mean” value is reported as 1035 counts. For the same compound, the “Vertical activity, 20 min, mean” value was 24 counts; the “Locomotor activity, 30 min, mean” value was 1523 counts; the “Vertical activity, 30 min, mean” value is listed as 35 counts; the “Locomotor activity, 10 min, mean” value came to 553 counts. Also, the “Vertical activity, 10 min, mean” value is recorded as 17 counts; the “Locomotor activity, 20-10 min, mean” value was found to be 482 counts; the “Vertical activity, 20-10 min, mean” value is reported as 7 counts; the “Locomotor activity, 30-20 min, mean” value is reported as 488 counts. Besides, the “Vertical activity, 30-20 min, mean” value was found to be 11 counts; the “Locomotor activity, 10 min” value is 453 counts and 589 counts and 482 counts and 508 counts and 596 counts and 558 counts and 481 counts and 551 counts and 691 counts and 619 counts; the “Locomotor activity, 20 min” value was 919 counts and 1099 counts and 896 counts and 840 counts and 1179 counts and 1113 counts and 923 counts and 988 counts and 1306 counts and 1088 counts; the “Vertical activity, 20 min” value is 10 counts and 40 counts and 21 counts and 7 counts and 30 counts and 17 counts and 27 counts and 4 counts and 37 counts and 43 counts. The “Locomotor activity, 30 min” value is 1371 counts and 1632 counts and 1253 counts and 1031 counts and 1789 counts and 1730 counts and 1422 counts (2×) and 2061 counts and 1519 counts; the “Vertical activity, 30 min” value is 15 counts and 55 counts and 26 counts and 7 counts and 30 counts and 31 counts and 38 counts and 14 counts and 83 counts and 46 counts; the “Vertical activity, 10 min” value was 9 counts and 30 counts (2×) and 13 counts and 7 counts and 12 counts (2×) and 21 counts and 3 counts and 34 counts; the “Locomotor activity, 20-10 min” value is 466 counts and 510 counts and 414 counts and 332 counts and 583 counts and 555 counts and 442 counts and 437 counts and 615 counts and 469 counts. In addition, the “Vertical activity, 20-10 min” value was 1 counts (2×) and 10 counts and 8 counts and 0 counts and 18 counts and 5 counts and 6 counts and 3 counts and 13 counts; the “Locomotor activity, 30-20 min” value is 452 counts and 533 counts and 357 counts and 191 counts and 610 counts and 617 counts and 499 counts and 434 counts and 755 counts and 431 counts; the “Vertical activity, 30-20 min” value was 5 counts (2×) and 15 counts and 0 counts (2×) and 14 counts and 11 counts and 10 counts and 46 counts and 3 counts.

On to `CC(=O)N[C@@H]1CCc2ccccc21` [Compound 1, (R)-N-acetyl aminoindan], for which the “Effect on amphetamine-induced locomotor activity versus control (ANOVA)” value is on record as “significantly reduced locomotion”; the “Effect on activity levels of rats (summary)” value was “reduced the activity levels”; the “Anti-manic potential from the tested model (conclusion)” value is given as “show anti-manic potential”; the “Locomotor activity, 20 min, mean” value was determined as 945.8 counts. Moreover, the “Vertical activity, 20 min, mean” value was determined as 22.5 counts; the “Locomotor activity, 30 min, mean” value is reported as 1395.6 counts; the “Vertical activity, 30 min, mean” value is recorded as 33.8 counts; the “Locomotor activity, 10 min, mean” value stood at 545.3 counts. For the same compound, the “Vertical activity, 10 min, mean” value stood at 14.2 counts; the “Locomotor activity, 20-10 min, mean” value stood at 400.5 counts; the “Vertical activity, 20-10 min, mean” value stood at 8.3 counts; the “Locomotor activity, 30-20 min, mean” value is 449.8 counts. The “Vertical activity, 30-20 min, mean” value is on record as 11.3 counts; the “Locomotor activity, 10 min” value was 600 counts and 448 counts and 718 counts and 740 counts and 570 counts and 426 counts and 395 counts and 462 counts and 681 counts and 413 counts; the “Locomotor activity, 20 min” value was 930 counts and 677 counts and 1125 counts and 1026 counts and 1147 counts and 802 counts and 800 counts and 794 counts and 1361 counts and 796 counts; the “Vertical activity, 20 min” value was 34 counts and 12 counts (2×) and 18 counts and 29 counts and 37 counts and 28 counts and 11 counts and 39 counts and 5 counts. For the same compound, the “Locomotor activity, 30 min” value is 1436 counts and 1027 counts and 1653 counts and 1317 counts and 1776 counts and 1230 counts and 1053 counts and 1150 counts and 2064 counts and 1250 counts; the “Vertical activity, 30 min” value was 62 counts and 18 counts and 20 counts and 31 counts and 53 counts and 38 counts and 12 counts and 21 counts and 76 counts and 7 counts; the “Vertical activity, 10 min” value was 27 counts and 9 counts and 16 counts (2×) and 29 counts and 20 counts and 5 counts and 10 counts and 6 counts and 4 counts; the “Locomotor activity, 20-10 min” value is 330 counts and 229 counts and 407 counts and 286 counts and 577 counts and 376 counts and 405 counts and 332 counts and 680 counts and 383 counts. Also, the “Vertical activity, 20-10 min” value is 7 counts (2×) and 3 counts and 2 counts and 0 counts and 17 counts and 12 counts and 1 counts (2×) and 33 counts; the “Locomotor activity, 30-20 min” value was 506 counts and 350 counts and 528 counts and 291 counts and 629 counts and 428 counts and 253 counts and 356 counts and 703 counts and 454 counts; the “Vertical activity, 30-20 min” value was 28 counts and 6 counts and 2 counts (3×) and 16 counts and 10 counts (2×) and 0 counts and 37 counts.

(Values after patent US6492426B1, “Use of 1-aminoindan derivatives for treatment of mania in bipolar mood disorder” (priority 1999, dated 2002).)
